PubChem BioAssay (NCI)
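Values below derive from 48-hour exposures of cells grown in 96-well plates, with endpoints linearly interpolated between the two concentrations bracketing the appropriate inhibition level. GI50 marks 50% less growth. TGI: concentration producing complete growth inhibition.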

Legend:
Experiment in all cases: NCI anticancer screen, dose series, 48 h
LOX IMVI melanoma = system: LOX IMVI melanoma
SNB-75 CNS = system: SNB-75 CNS
A549 NSCLC = system: A549 NSCLC
M14 melanoma = system: M14 melanoma
HCC-2998 colon = system: HCC-2998 colon
SW-620 colon = system: SW-620 colon
HL-60(TB) leukemia = system: HL-60(TB) leukemia
786-0 renal = system: 786-0 renal
MDA-MB-435 = system: MDA-MB-435
T-47D breast = system: T-47D breast

Cc1ccc(C2=[N+]([O-])c3ccccc3C2=O)cc1
TGI (LOX IMVI melanoma): 31.2 µM
TGI (SNB-75 CNS): > 100 µM
TGI (A549 NSCLC): > 90.7 µM
TGI (M14 melanoma): 59.4 µM
TGI (HCC-2998 colon): > 100 µM
TGI (SW-620 colon): > 55.2 µM
TGI (HL-60(TB) leukemia): 33.6 µM
TGI (786-0 renal): 69.4 µM

COC(=O)C1Cc2c(n(C)c3ccccc23)C(c2ccccc2)N1 (stereo not given)
TGI (LOX IMVI melanoma): > 100 µM
TGI (SNB-75 CNS): > 100 µM
TGI (A549 NSCLC): > 100 µM
TGI (M14 melanoma): > 100 µM
TGI (HCC-2998 colon): > 100 µM
TGI (SW-620 colon): > 100 µM
TGI (HL-60(TB) leukemia): 48 µM
TGI (786-0 renal): > 100 µM

NC(=O)c1csc(C2O[C@@H](COP(=O)(O)OP(=O)(O)OC[C@H]3OC(n4cnc5c(N)ncnc54)[C@H](O)[C@@H]3O)[C@H](O)[C@@H]2O)n1 (stereo not given in full)
TGI (LOX IMVI melanoma): > 100 µM
TGI (SNB-75 CNS): > 100 µM
TGI (A549 NSCLC): > 100 µM
TGI (M14 melanoma): > 100 µM
TGI (HCC-2998 colon): > 100 µM
TGI (SW-620 colon): > 100 µM
TGI (HL-60(TB) leukemia): > 100 µM
TGI (786-0 renal): > 100 µM

O=C(Nc1ccccc1)O/N=C1/CCCC/C1=C\c1ccccc1
TGI (LOX IMVI melanoma): 34 µM
TGI (SNB-75 CNS): 28.6 µM
TGI (M14 melanoma): 32.8 µM
TGI (HCC-2998 colon): 41.7 µM
TGI (SW-620 colon): 29.9 µM
TGI (786-0 renal): 32.5 µM

O=C(O)CSCC(=O)c1ccccc1
TGI (LOX IMVI melanoma): > 100 µM
TGI (SNB-75 CNS): > 100 µM
TGI (A549 NSCLC): > 100 µM
TGI (M14 melanoma): > 100 µM
TGI (SW-620 colon): > 100 µM
TGI (MDA-MB-435): > 100 µM
TGI (HL-60(TB) leukemia): > 100 µM
TGI (786-0 renal): > 100 µM
TGI (T-47D breast): > 100 µM

O=[N+]([O-])c1ccc2c(c1)OCCOCCOc1ccc([N+](=O)[O-])cc1OCCOCCO2
TGI (LOX IMVI melanoma): > 100 µM
TGI (SNB-75 CNS): > 100 µM
TGI (A549 NSCLC): > 100 µM
TGI (M14 melanoma): > 100 µM
TGI (HCC-2998 colon): > 100 µM
TGI (SW-620 colon): > 100 µM
TGI (HL-60(TB) leukemia): > 100 µM
TGI (786-0 renal): > 100 µM

N#CC12CCC(O)C(CC1)C2=O (stereo not given)
TGI (LOX IMVI melanoma): 39.3 µM
TGI (SNB-75 CNS): > 100 µM
TGI (A549 NSCLC): > 100 µM
TGI (M14 melanoma): > 100 µM
TGI (HCC-2998 colon): > 100 µM
TGI (HL-60(TB) leukemia): > 100 µM
TGI (786-0 renal): > 100 µM

CC(C)(C)c1ccc(Oc2ccc(C#N)c(C#N)c2)c(C(C)(C)C)c1
TGI (LOX IMVI melanoma): > 54.6 µM
TGI (SNB-75 CNS): > 100 µM
TGI (A549 NSCLC): > 100 µM
TGI (M14 melanoma): > 100 µM
TGI (HCC-2998 colon): > 100 µM
TGI (SW-620 colon): > 100 µM
TGI (HL-60(TB) leukemia): 32.3 µM
TGI (786-0 renal): > 100 µM

O=C1C(c2ccc(Cl)cc2)=[N+]([O-])c2ccccc21
TGI (LOX IMVI melanoma): 27.7 µM
TGI (SNB-75 CNS): 42.2 µM
TGI (A549 NSCLC): 37.7 µM
TGI (M14 melanoma): 27.7 µM
TGI (HCC-2998 colon): > 100 µM
TGI (SW-620 colon): 62.1 µM
TGI (HL-60(TB) leukemia): 24 µM
TGI (786-0 renal): 30.7 µM

O=C(O)C(Cc1ccccc1-c1ccccc1)C(=O)O
TGI (LOX IMVI melanoma): > 100 µM
TGI (SNB-75 CNS): > 100 µM
TGI (A549 NSCLC): > 100 µM
TGI (M14 melanoma): > 100 µM
TGI (SW-620 colon): > 100 µM
TGI (MDA-MB-435): > 100 µM
TGI (786-0 renal): > 100 µM
TGI (T-47D breast): > 100 µM

O=C1C2c3[nH]c4ccccc4c3C3CCSCC3C2C(=O)N1c1ccccc1 (stereo not given)
TGI (LOX IMVI melanoma): > 100 µM
TGI (SNB-75 CNS): 44.7 µM
TGI (A549 NSCLC): > 100 µM
TGI (M14 melanoma): > 100 µM
TGI (SW-620 colon): > 100 µM
TGI (HL-60(TB) leukemia): > 100 µM
TGI (786-0 renal): > 100 µM

COc1c2c(c(OC)c3c(=O)cc(C/C(=N/NC(=O)C[n+]4ccccc4)C(=O)Nc4cc(C)ccc4C)oc13)OCO2
TGI (LOX IMVI melanoma): > 100 µM
TGI (SNB-75 CNS): > 100 µM
TGI (A549 NSCLC): > 100 µM
TGI (M14 melanoma): > 100 µM
TGI (HCC-2998 colon): > 100 µM
TGI (SW-620 colon): > 100 µM
TGI (HL-60(TB) leukemia): > 100 µM
TGI (786-0 renal): > 100 µM

N.N.NCCCCN.O=C([O-])CC(=O)[O-].O=C([O-])CC(=O)[O-].[Pt+4].[Pt+4]
GI50 (LOX IMVI melanoma): 78.3 µM
TGI (LOX IMVI melanoma): > 100 µM
GI50 (SNB-75 CNS): > 100 µM
TGI (SNB-75 CNS): > 100 µM
GI50 (A549 NSCLC): > 100 µM
TGI (A549 NSCLC): > 100 µM
GI50 (M14 melanoma): > 100 µM
TGI (M14 melanoma): > 100 µM
GI50 (HCC-2998 colon): 97.3 µM
TGI (HCC-2998 colon): > 100 µM
GI50 (SW-620 colon): > 100 µM
TGI (SW-620 colon): > 100 µM
GI50 (HL-60(TB) leukemia): 11.5 µM
TGI (HL-60(TB) leukemia): > 100 µM
GI50 (786-0 renal): 57.3 µM
TGI (786-0 renal): > 100 µM

COc1cc2c3c(n(CCCO)c(=O)c2cc1OC)-c1cc2c(cc1C3=O)OCO2
GI50 (LOX IMVI melanoma): 2.89 µM
TGI (LOX IMVI melanoma): 22.9 µM
GI50 (SNB-75 CNS): 16.1 µM
TGI (SNB-75 CNS): > 79.1 µM
GI50 (A549 NSCLC): 16.9 µM
TGI (A549 NSCLC): > 100 µM
GI50 (M14 melanoma): 3.68 µM
TGI (M14 melanoma): 32.8 µM
GI50 (SW-620 colon): 4.75 µM
TGI (SW-620 colon): > 100 µM
GI50 (MDA-MB-435): 31.4 µM
TGI (MDA-MB-435): > 100 µM
GI50 (HL-60(TB) leukemia): 2.34 µM
TGI (HL-60(TB) leukemia): 10.4 µM
GI50 (786-0 renal): 2.46 µM
TGI (786-0 renal): 10.1 µM
GI50 (T-47D breast): 14.2 µM
TGI (T-47D breast): > 100 µM

CCN(CC)c1ccc2[nH]c3c(C(N)=O)cc(=O)c(=O)c=3oc2c1
GI50 (LOX IMVI melanoma): 0.581 µM
TGI (LOX IMVI melanoma): 6.3 µM
GI50 (SNB-75 CNS): 2.04 µM
TGI (SNB-75 CNS): 8.59 µM
GI50 (A549 NSCLC): 1.75 µM
TGI (A549 NSCLC): 5.12 µM
GI50 (M14 melanoma): 1.61 µM
TGI (M14 melanoma): 4.17 µM
GI50 (SW-620 colon): 2.36 µM
TGI (SW-620 colon): > 100 µM
GI50 (MDA-MB-435): 0.377 µM
TGI (MDA-MB-435): 9.78 µM
GI50 (HL-60(TB) leukemia): 1.66 µM
TGI (HL-60(TB) leukemia): 5.08 µM
GI50 (786-0 renal): 2.42 µM
TGI (786-0 renal): > 100 µM
GI50 (T-47D breast): 2.58 µM
TGI (T-47D breast): > 100 µM

Cc1ccc(C)c(NC(=O)CC2C(=O)Nc3ccccc3S2(=O)=O)c1 (stereo not given)
TGI (LOX IMVI melanoma): > 100 µM
TGI (SNB-75 CNS): 45.7 µM
TGI (A549 NSCLC): > 100 µM
TGI (M14 melanoma): > 100 µM
TGI (HCC-2998 colon): > 100 µM
TGI (SW-620 colon): > 100 µM
TGI (HL-60(TB) leukemia): > 100 µM
TGI (786-0 renal): 56.5 µM

COc1cc(-c2cc(C(=O)Nc3nc4ccccc4s3)nc3cc(-c4ccccc4)nn23)cc(OC)c1OC
GI50 (LOX IMVI melanoma): 5.57 µM
TGI (LOX IMVI melanoma): > 100 µM
GI50 (SNB-75 CNS): 2.77 µM
TGI (SNB-75 CNS): 16.1 µM
GI50 (M14 melanoma): 2.39 µM
TGI (M14 melanoma): > 100 µM
GI50 (HCC-2998 colon): > 100 µM
TGI (HCC-2998 colon): > 100 µM
GI50 (MDA-MB-435): 2.61 µM
TGI (MDA-MB-435): 40.3 µM
GI50 (786-0 renal): 2.59 µM
TGI (786-0 renal): 12.8 µM
GI50 (T-47D breast): 21.4 µM
TGI (T-47D breast): > 100 µM

O=C(Nc1cccc(C2=NCCN2)c1)c1ccc(OCCCOc2ccc(C(=O)Nc3cccc(C4=NCCN4)c3)cc2)cc1
GI50 (M14 melanoma): 2.88 µM
TGI (M14 melanoma): > 100 µM
GI50 (HL-60(TB) leukemia): 2.3 µM
TGI (HL-60(TB) leukemia): > 100 µM
GI50 (786-0 renal): 3.69 µM
TGI (786-0 renal): > 100 µM

O=C(O)C1CCCN1Cc1c[nH]c2ccccc12 (stereo not given)
TGI (LOX IMVI melanoma): > 100 µM
TGI (SNB-75 CNS): > 100 µM
TGI (A549 NSCLC): > 100 µM
TGI (M14 melanoma): > 100 µM
TGI (SW-620 colon): > 100 µM
TGI (MDA-MB-435): > 100 µM
TGI (HL-60(TB) leukemia): > 100 µM
TGI (786-0 renal): > 100 µM
TGI (T-47D breast): > 100 µM

COC1CCC2C(=O)CCCC2O1 (stereo not given)
TGI (SNB-75 CNS): > 100 µM
TGI (A549 NSCLC): > 100 µM
TGI (M14 melanoma): > 100 µM
TGI (HCC-2998 colon): > 100 µM
TGI (SW-620 colon): > 100 µM
TGI (HL-60(TB) leukemia): > 100 µM
TGI (786-0 renal): > 100 µM

COCC1N=C(c2ccc(OC)c(OCc3ccccc3)c2OC)O[C@H]1c1ccccc1 (stereo not given in full)
TGI (LOX IMVI melanoma): 29.6 µM
TGI (SNB-75 CNS): > 100 µM
TGI (A549 NSCLC): > 100 µM
TGI (M14 melanoma): 35.2 µM
TGI (HCC-2998 colon): > 100 µM
TGI (SW-620 colon): > 100 µM
TGI (HL-60(TB) leukemia): 40.4 µM
TGI (786-0 renal): 96.1 µM

COc1c(O)cc2oc3cc(O)c(CC=C(C)C)c(O)c3c(=O)c2c1C/C=C(\C)CCC=C(C)C
GI50 (LOX IMVI melanoma): 5.49 µM
TGI (LOX IMVI melanoma): 10.5 µM
GI50 (SNB-75 CNS): 3.58 µM
TGI (SNB-75 CNS): 7.46 µM
GI50 (A549 NSCLC): 5.1 µM
TGI (A549 NSCLC): 9.64 µM
GI50 (M14 melanoma): 6.17 µM
TGI (M14 melanoma): 12.6 µM
GI50 (HCC-2998 colon): 7.06 µM
TGI (HCC-2998 colon): 13.6 µM
GI50 (SW-620 colon): 5.8 µM
TGI (SW-620 colon): 10.4 µM
GI50 (MDA-MB-435): 5.77 µM
TGI (MDA-MB-435): 10.9 µM
GI50 (HL-60(TB) leukemia): 7.69 µM
TGI (HL-60(TB) leukemia): 17.7 µM
GI50 (786-0 renal): 6.36 µM
TGI (786-0 renal): 11.6 µM
